Measurements from patent publication US7649095B2, “Piperidine derivatives and agent comprising the derivative as active ingredient” (Ono Pharmaceutical Co., Ltd., priority 2003, dated 2010).
pIC50: −log10 of the molar value. Counter-ions that a name gives are not always drawn.

Target: PDE4
Assay: In vitro enzyme assay: PDE4 inhibitory activity
Format: biochemical
Conditions: PDE4 enzyme solution from U937 cells (originated from human monocyte), 3H-cAMP substrate, room temperature 30 minutes
Protocol: U937 cells (originated from human monocyte) were cultured in PRMI 1640 medium containing 10% fetal bovine serum. The U937 cells were harvested and homogenized in 20 mM Tris-HCl buffer [pH 8.0, containing PMSF (1 mM), leupeptin (1 μg/ml) and pepstatin A (1 μg/ml)]. After centrifugation (at 15,000 rpm for 10 minutes), the supernatant was recovered and filtered through a 0.45 μm filter. The sample was applied to MonoQ (manufactured by Pharmacia, strong anion exchange resin) column and eluted by a density gradient of 0 to 0.8 M NaCl. Fractions from which the PDE activity was disappeared by 10 μM rolipram (a PDE4-selective inhibitor) were recovered and used as the enzyme solution for the measurement of PDE4 inhibitory activity.
The enzyme activity was measured by the following method. […] To an alumina column (100 μl), 50 μl of the supernatant was applied, eluted with 80 μl of 0.005 N hydrochloric acid, and radioactivity of the eluate was measured.
PDE4 inhibitory activity ratio of the compound of the present invention was calculated by the following equation: PDE4 inhibitory activity ratio (%)=(1−radioactivity in the presence of the compound of the present invention/radioactivity in the absence of the compound of the present invention)×100 […]

Q: COc1ccc(C2(C#N)CCN(CC(=O)NO)CC2)cc1OC1CCCC1 [Example 3, N-hydroxy-2-(4-(3-cyclopentyloxy-4-methoxyphenyl)-4-cyanopiperidin-1-yl)acetamide·hydrochloride] was tested. Which pIC50 did it give?
A: 10.52
